Assay results taken from the NIST ThermoML archive (doi:10.1021/je2007549).
Numbers after ± are expanded uncertainties.

Legend:
[1] = 101 kPa, Liquid; for electrical conductivity: Direct current cell with electrodes; for viscosity: Falling or rolling sphere viscometry; for mass density: Vibrating tube method
[2] = xn = mol fraction of the nth substance listed; details: 101 kPa, Liquid; for electrical conductivity: Direct current cell with electrodes; for mass density: Vibrating tube method; for viscosity: n

CCCC[P+](CCCC)(CCCC)CCCN.C[C@H](N)C(=O)[O-] [(3-aminopropyl)tributylphosphonium L-alaninate]
[1]
Details | electrical conductivity [S/m] | mass density [kg/m3] | viscosity [mPa·s]
298.15 K | 0.0141 ± 0.00028 | 986.75 ± 5.3 | 804.88 ± 79
303.15 K | 0.0209 ± 0.00042 | 983.72 ± 5.2 | 561.4 ± 50
313.15 K | 0.032 ± 0.00064 | 977.65 ± 5.2 | 291.07 ± 21
323.15 K | 0.0464 ± 0.00093 | 971.62 ± 5.1 | 164.61 ± 10
333.15 K | 0.0649 ± 0.0013 | 965.71 ± 5 | 106.7 ± 5.7
343.15 K | 0.0884 ± 0.0018 | 959.97 ± 5 | 65.96 ± 3.3

CC(C)C[C@H](N)C(=O)[O-].CCCC[P+](CCCC)(CCCC)CCCN [(3-aminopropyl)tributylphosphonium L-leucinate]
[1]
Details | electrical conductivity [S/m] | mass density [kg/m3] | viscosity [mPa·s]
298.15 K | 0.008 ± 0.00016 | 971.86 ± 5.1 | 1227.9 ± 140
303.15 K | 0.0108 ± 0.00022 | 968.8 ± 5.1 | 855.26 ± 85
313.15 K | 0.0185 ± 0.00037 | 962.68 ± 5 | 417.9 ± 34
323.15 K | 0.0291 ± 0.00058 | 956.54 ± 5 | 224.29 ± 15
333.15 K | 0.0414 ± 0.00083 | 950.54 ± 4.9 | 130.46 ± 7.4
343.15 K | 0.0605 ± 0.0012 | 944.58 ± 4.8 | 81.01 ± 4.1

CC(C)[C@H](N)C(=O)[O-].CCCC[P+](CCCC)(CCCC)CCCN [(3-aminopropyl)tributylphosphonium L-valinate]
[1]
Details | electrical conductivity [S/m] | mass density [kg/m3] | viscosity [mPa·s]
298.15 K | 0.00815 ± 0.00016 | 980.72 ± 5.2 | 1015.5 ± 110
303.15 K | 0.011 ± 0.00022 | 977.68 ± 5.2 | 695.04 ± 66
313.15 K | 0.0188 ± 0.00038 | 971.57 ± 5.1 | 350.86 ± 27
323.15 K | 0.0294 ± 0.00059 | 965.45 ± 5 | 192.24 ± 12
333.15 K | 0.0447 ± 0.00089 | 959.5 ± 5 | 114.05 ± 6.2
343.15 K | 0.065 ± 0.0013 | 953.54 ± 4.9 | 72.45 ± 3.6

CC(C)[C@H](N)C(=O)[O-].CCCC[P+](CCCC)(CCCC)CCCN [(3-aminopropyl)tributylphosphonium L-valinate] + O
[2]
Details | electrical conductivity [S/m] | mass density [kg/m3] | viscosity [mPa·s]
298.15 K, x2 = 0 | 0.00815 ± 0.00016 | 980.72 ± 5.2 | 1015.5 ± 50
298.15 K, x2 = 0.25 | 0.0116 ± 0.00023 | 982.82 ± 3.3 | 734.22 ± 34
298.15 K, x2 = 0.5 | 0.0168 ± 0.00034 | 987.18 ± 1.8 | 505.63 ± 22
298.15 K, x2 = 0.75 | 0.0414 ± 0.00083 | 995.89 ± 0.83 | 237.96 ± 10
303.15 K, x2 = 0 | 0.011 ± 0.00022 | 977.68 ± 5.2 | 695.04 ± 34
303.15 K, x2 = 0.25 | 0.0158 ± 0.00032 | 979.76 ± 3.3 | 508.12 ± 24
303.15 K, x2 = 0.5 | 0.0237 ± 0.00047 | 984.04 ± 1.8 | 335.23 ± 15
303.15 K, x2 = 0.75 | 0.0547 ± 0.0011 | 992.65 ± 0.83 | 168.93 ± 7.2
313.15 K, x2 = 0 | 0.0188 ± 0.00038 | 971.57 ± 5.1 | 350.86 ± 17
313.15 K, x2 = 0.25 | 0.0253 ± 0.00051 | 973.59 ± 3.2 | 259.52 ± 12
313.15 K, x2 = 0.5 | 0.0401 ± 0.0008 | 977.71 ± 1.8 | 184.22 ± 8.2
313.15 K, x2 = 0.75 | 0.0853 ± 0.0017 | 986.16 ± 0.82 | 92.15 ± 4
323.15 K, x2 = 0 | 0.0294 ± 0.00059 | 965.45 ± 5 | 192.24 ± 9.4
323.15 K, x2 = 0.25 | 0.0392 ± 0.00078 | 967.39 ± 3.2 | 145.61 ± 6.7
323.15 K, x2 = 0.5 | 0.0635 ± 0.0013 | 971.55 ± 1.8 | 102.76 ± 4.5
323.15 K, x2 = 0.75 | 0.128 ± 0.0026 | 979.59 ± 0.81 | 56.03 ± 2.4
333.15 K, x2 = 0 | 0.0447 ± 0.00089 | 959.5 ± 5 | 114.05 ± 5.5
333.15 K, x2 = 0.25 | 0.0563 ± 0.0011 | 961.39 ± 3.1 | 87.86 ± 4
333.15 K, x2 = 0.5 | 0.093 ± 0.0019 | 965.34 ± 1.8 | 65.77 ± 2.9
333.15 K, x2 = 0.75 | 0.183 ± 0.0037 | 972.96 ± 0.81 | 36.96 ± 1.6
343.15 K, x2 = 0 | 0.065 ± 0.0013 | 953.54 ± 4.9 | 72.45 ± 3.5
343.15 K, x2 = 0.25 | 0.0858 ± 0.0017 | 955.37 ± 3.1 | 56.87 ± 2.6
343.15 K, x2 = 0.5 | 0.132 ± 0.0026 | 959.05 ± 1.8 | 43.81 ± 1.9
343.15 K, x2 = 0.75 | 0.258 ± 0.0052 | 966.29 ± 0.8 | 24.58 ± 1
